Key:
in vitro = conditions: human, liver microsomes
[1] = Terminal half life in human; format: ADME, organism-based; conditions: in vivo

| Structure (SMILES) | CLint scaled at 1 h, 1 µM (in vitro) | half-life [1] |
| --- | --- | --- |
| CNC[C@@H]1OCc2ccccc2[C@@H]1Oc1cccc(F)c1C | 21 mL/min/kg | – |
| CNC[C@@H]1OCc2ccccc2[C@@H]1Oc1ccccc1Cl | 8 mL/min/kg | – |
| CNC[C@@H]1COc2ccccc2[C@@H]1Oc1ccccc1Cl | 9 mL/min/kg | – |
| CNC[C@@H]1OCc2ccccc2[C@@H]1Oc1ccc(O)cc1C | 4 mL/min/kg | – |
| CCc1ccccc1O[C@H]1c2ccccc2OC[C@H]1CNC | ≤ 3 mL/min/kg | – |
| CNCC[C@@H](Oc1ccccc1C)c1ccccc1 [ATOMOXETINE] | 50 mL/min/kg | 3 h |

Other lines, results leading:

| CLint scaled at 1 h, 1 µM (in vitro) | half-life [1] | Structure (SMILES) |
| --- | --- | --- |
| ≤ 3 mL/min/kg | – | CNC[C@@H]1OCc2ccccc2[C@@H]1Oc1c(F)cccc1C(F)(F)F |
| ≤ 3 mL/min/kg | – | CNC[C@@H]1OCc2ccccc2[C@@H]1Oc1c(C)cccc1F |
| 10 mL/min/kg | – | CNC[C@@H]1OCc2ccccc2[C@@H]1Oc1ccccc1C(F)(F)F |
